Structures can show the parent of a compound that is named as a salt.
Assays:
thrombin receptor = target: T1, thrombin receptor (Homo sapiens, UniProt P25116); test: Receptor binding assay ([3H] high affinity TRAP, platelet membrane); details: platelet membrane of healthy adult; 25 nM [3H] high affinity TRAP; 37° C., 1 hour; read-out: RBA IC50
T1 construct: centrifuged at 40,000 g for 60 minutes to yield platelet membrane; from tissue; host or cells: platelet membrane prepared from donor blood (platelet rich plasma)
T1 sequence (P25116 22-425): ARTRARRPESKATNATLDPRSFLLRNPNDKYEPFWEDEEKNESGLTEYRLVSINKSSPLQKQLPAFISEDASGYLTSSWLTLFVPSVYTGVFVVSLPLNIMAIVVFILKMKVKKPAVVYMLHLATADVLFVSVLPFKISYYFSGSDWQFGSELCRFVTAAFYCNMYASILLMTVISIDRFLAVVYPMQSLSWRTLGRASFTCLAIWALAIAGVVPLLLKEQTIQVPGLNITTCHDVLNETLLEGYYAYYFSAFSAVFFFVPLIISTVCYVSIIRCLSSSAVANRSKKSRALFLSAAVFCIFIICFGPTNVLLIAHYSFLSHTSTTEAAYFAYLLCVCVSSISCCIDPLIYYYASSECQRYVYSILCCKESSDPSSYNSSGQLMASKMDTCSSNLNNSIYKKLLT
Procedure: Blood was sampled from a healthy adult who had taken no drugs for one week, and 3.8% citric acid (a ratio of 1:9 with respect to the blood) was added as an anticoagulant. The mixture was then centrifuged at 100 g for 10 minutes at room temperature to yield platelet rich plasma (PRP). The platelet precipitate obtained by centrifuging the PRP was homogenized with a Dounce homogenizer, and then centrifuged at 40,000 g for 60 minutes to yield platelet membrane. The platelet membrane was suspended in a solution prepared by adding DMSO (dimethyl sulfoxide) at 1% concentration to Buffer 1: a 50 mM Tris-HCl buffer containing 10 mM MgCl2 and 1 mM EGTA (ethylene glycol tetraacetic acid), and the suspension was stored at −80° C. Bovine albumin and DMSO were added to Buffer 1 at 0.1% and 20%, respectively, to make preparation solutions for the test compound. The test compounds (20 μl) diluted at various concentrations with the preparation solutions were added to a 96-well multiscreen plate. […] After then adding 100 μl of the previously prepared platelet membrane suspension (0.4 mg/ml) and mixing, incubation was performed at 37° C. for 1 hour. The reaction mixture was suction filtered and then rinsed 3 times with 200 μl of Buffer 1. Next, 30 μl of liquid scintillator was added for measurement of the radioactivity of the plate using a Top Counter (Packard), the value of the radioactivity in the presence of the test compound minus non-specific binding portion was divided by the specific binding value (the value of the binding in the absence of the compound minus the non-specific binding portion) to determine the binding ratio, from which the IC50 value was calculated. The non-specific binding was the value obtained with addition of 10 μM of high affinity TRAP.

[1] = tested on: platelet rich plasma (PRP), thrombin-induced platelet aggregation; test: Inhibitory effects on platelet aggregation using platelet rich plasma; assay type: cell-based; details: Homo sapiens, 0.1 h, PRP of healthy adult, aggregation initiated with thrombin (0.5–1.5 units/ml), area under aggregation curve, 6 minutes, read-out: Thr IC50
Procedure: [Inhibitory Effects on Platelet Aggregation Using Platelet Rich Plasma]
Blood was sampled from a healthy adult who had taken no drugs for one week, and 3.8% citric acid (a ratio of 1:9 with respect to the blood) was added as an anticoagulant. The mixture was then centrifuged at 100 g for 10 minutes at room temperature to yield platelet rich plasma (PRP). The PRP-removed blood was further centrifuged at 1000 g for 10 minutes to yield platelet poor plasma (PPP). The number of platelet was counted using a multi-parameter automatic hemocyte counter (K4500, Sysmex), and the PRP was diluted to approximately 300,000/μl with the PPP. The platelet aggregation activity was determined in the following manner using an Aggregometer (MC Medical). GPRP-NH2 (final concentration 1 mM, 25 μl) was added as a fibrin polymerization inhibitor to the PRP (175 μl), after which Ca-free Tyrode solution (control) or the test compound suspension (25 μl) at different concentrations was added, incubation was performed at 37° C. for 3 minutes and then 25 μl of thrombin at the minimum concentration required to produce maximum aggregation (final concentration: optimum concentration among 0.5–1.5 units/ml) was added, for initiation of platelet aggregation. PRP and Ca-free Tyrode solution (control) or the preparation solutions at various concentrations were pre-incubated at 37° C. for 60 minutes, prior to the platelet aggregation reaction in some experiments. After addition of thrombin, the aggregation reaction was examined for 6 minutes and the areas under the aggregation curves were compared to determine the inhibition ratio, from which the IC50 value was calculated.

[2] = tested on: Vascular smooth muscle cells (rSMC); test: Rat smooth muscle cell proliferation assay; assay type: cell-based; details: 48 h; male SD rat aorta rSMC; thrombin 0.1 unit/ml; 2 days; MTT, OD 590 nm; read-out: Rat SMC IC50
Procedure: [Rat Smooth Muscle Cell Proliferation Assay]
Vascular smooth muscle cells (rSMC) were isolated from male SD rat aorta by the explant method. DMEM medium (Sigma) containing 10% fetal bovine serum (GibcoBRL), streptomycin and penicillin was used as the proliferation medium, and subculture was carried out at 37° C. in the presence of 5% CO2. Culture was initiated after adding 100 μl of rSMC suspension in proliferation medium at a concentration of 1×10^4 cells/ml, to a 96-well plate. After 3 days, cells were rinsed twice with 100 μl of DMEM medium, the medium was exchanged with 100 μl of DMEM medium containing 0.1% albumin (starvation medium), and serum starvation was initiated. The medium was exchanged two days after the serum starvation, 80 μl of starvation medium and 10 μl of the test compound diluted to different concentrations with the starvation medium were added, and then 10 μl of thrombin dissolved in the starvation medium (final concentration: 0.1 unit/ml) was added prior to further incubation for 2 days.
Upon adding 20 μl of MTT (3-[4,5-dimethylthiazol-2-yl]-2,5-diphenyltetrazolium bromide) dissolved in DPBS to 7.5 mg/ml, incubation was continued for 4 hours. The medium was removed by suction, 50 μl of a 10% SDS/0.029% ammonia solution was added, and the mixture was allowed to stand for 2 hours in a CO2 incubator for complete lysis of the cells. As an index of cell proliferation, the OD 590 nm was measured using a plate reader (EL340, BIO-TEK Instruments Inc.), and the control OD value (OD value in the absence of the test compound) minus the OD value in the presence of the test compound was divided by the control OD value minus the blank OD value (OD value without thrombin stimulation) to determine the inhibition ratio, from which the IC50 value was calculated.

Row | Structure (SMILES) | IC50 (thrombin receptor) | IC50 [1] | IC50 [2]
1 | CCOc1cc2c(cc1C(=O)NC)C(=N)N(CC(=O)c1cc(OCC)c(O)c(C(C)(C)C)c1)C2 [Example 109, 2-[2-(3-tert-Butyl-5-ethoxy-4-hydroxy-phenyl)-2-oxo-ethyl]-6-ethoxy-3-imino-2,3-dihydro-1H-isoindole-5-carboxylic acid methylamide hydrobromide] | 30 nM | 12 nM | 42 nM
2 | CCOc1cc2c(c(F)c1OCC)C(=N)N(CC(=O)c1cc(N3CCNCC3)c(OC)c(C(C)(C)C)c1)C2 [Example 112, 1-(3-tert-Butyl-4-methoxy-5-piperazin-1-yl-phenyl)-2-(5,6-diethoxy-7-fluoro-1-imino-1,3-dihydro-isoindol-2-yl)-ethanone dihydrochloride] | 30 nM | 28 nM | 52 nM
3 | CCOc1cc2c(c(F)c1OCC)C(=N)N(CC(=O)c1cc(N3CCN(CC(=O)O)CC3)c(OC)c(C(C)(C)C)c1)C2 [Example 127, (4-{3-tert-Butyl-5-[2-(5,6-diethoxy-7-fluoro-1-imino-1,3-dihydro-isoindol-2-yl)-acetyl]-2-methoxy-phenyl}-piperazin-1-yl)-acetic acid dihydrochloride] | 17 nM | 21 nM | 150 nM

Source: patent publication US7244730B2, “2-iminopyrrolidine derivatives” (Eisai Co., Ltd, priority 2001, dated 2007)
